In patent US20230372498A1, “PLK1 SELECTIVE DEGRADATION INDUCING COMPOUND” (UPPTHERA, priority 2020, published 2023):

Biological target: T1, PLK1 (Homo sapiens, UniProt P53350)
T1 construct: endogenous in cells; host or cells: HeLa
Experiment: PLK1 protein degradation in HeLa cells, Western blotting (PLK1/GAPDH ratio)
Assay type: cell-based
Conditions: for DC50 / Dmax: 6 hours compound incubation; for DC50: measured only if the grade of Dmax is A or B; for Dmax: thymidine block and release, 10 points three-fold from 3 μM, PLK1 to GAPDH ratio, read-out: Dmax
Method in brief: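 PLK1 level measured by Western blot as PLK1/GAPDH in HeLa lysates (15 μg protein per lane). Cells were blocked with 2 mM thymidine 24 h, released 4 h, and exposed 6 h to compound, 10 concentrations, 3-fold steps, top 3 μM.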

T1 sequence (P53350 whole entry): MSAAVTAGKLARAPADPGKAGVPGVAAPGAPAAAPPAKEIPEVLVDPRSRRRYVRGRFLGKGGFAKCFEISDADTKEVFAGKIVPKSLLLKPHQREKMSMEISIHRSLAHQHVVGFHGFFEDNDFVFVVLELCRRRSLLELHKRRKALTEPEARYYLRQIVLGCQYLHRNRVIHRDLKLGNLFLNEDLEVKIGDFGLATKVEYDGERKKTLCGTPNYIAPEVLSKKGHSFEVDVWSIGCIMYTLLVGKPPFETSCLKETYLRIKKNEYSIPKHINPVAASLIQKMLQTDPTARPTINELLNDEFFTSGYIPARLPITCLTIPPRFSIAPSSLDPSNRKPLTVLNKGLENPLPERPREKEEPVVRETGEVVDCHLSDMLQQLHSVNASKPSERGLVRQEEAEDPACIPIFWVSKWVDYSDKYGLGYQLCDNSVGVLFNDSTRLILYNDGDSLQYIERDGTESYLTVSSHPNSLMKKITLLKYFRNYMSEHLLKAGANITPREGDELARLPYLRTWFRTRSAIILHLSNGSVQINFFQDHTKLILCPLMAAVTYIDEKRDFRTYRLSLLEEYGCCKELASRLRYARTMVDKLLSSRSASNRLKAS

A DC50 of at most 50 nM and a Dmax of at least 80% were found for `COc1cc(C(=O)NC2CCN(CCOCCOCCNc3cccc4c3C(=O)N(C3CCC(=O)NC3=O)C4=O)C2)c(F)cc1Nc1ncc2c(n1)N(C1CCCC1)CC(F)(F)C(=O)N2C` (centres unmarked) [Example 107, 4-((9-cyclopentyl-7,7-difluoro-5-methyl-6-oxo-6,7,8,9-tetrahydro-5H-pyrimido[4,5-b][1,4]diazepin-2-yl)amino)-N-(1-(2-(2-(2-((2-(2,6-dioxopiperidin-3-yl)-1,3-dioxoisoindolin-4-yl)amino)ethoxy)ethoxy)ethyl)pyrrolidin-3-yl)-2-fluoro-5-methoxybenzamide] in this work.
A DC50 of at most 50 nM and a Dmax of at least 80% were found for `COc1cc(C(=O)N[C@H]2CCN(C(=O)CCC(=O)N3CC4(C3)CN(c3cccc5c3C(=O)N(C3CCC(=O)NC3=O)C5=O)C4)C2)c(F)cc1Nc1ncc2c(n1)N(C1CCCC1)CC(F)(F)C(=O)N2C` (stereo partly drawn) [Compound 148, 4-((9-cyclopentyl-7,7-difluoro-5-methyl-6-oxo-6,7,8,9-tetrahydro-5H-pyrimido[4,5-b][1,4]diazepin-2-yl)amino)-N-((3S)-1-(4-(6-(2-(2,6-dioxopiperidin-3-yl)-1,3-dioxoisoindolin-4-yl)-2,6-diazaspiro[3.3]heptan-2-yl)-4-oxobutanoyl)pyrrolidin-3-yl)-2-fluoro-5-methoxybenzamide] in this work.
A DC50 of at most 500 nM and a Dmax of 60 to 80% were found for `COc1cc(C(=O)NC2CCN(CC3CCN(c4ccc5c(c4)C(=O)N(C4CCC(=O)NC4=O)C5=O)CC3)CC2)c(F)cc1Nc1ncc2c(n1)N(C1CCCC1)CC(F)(F)C(=O)N2C` (centres unmarked) [Compound 67, 4-((9-cyclopentyl-7,7-difluoro-5-methyl-6-oxo-6,7,8,9-tetrahydro-5H-pyrimido[4,5-b][1,4]diazepin-2-yl)amino)-N-(1-((1-(2-(2,6-dioxopiperidin-3-yl)-1,3-dioxoisoindolin-5-yl)piperidin-4-yl)methyl)piperidin-4-yl)-2-fluoro-5-methoxybenzamide] in this work.
A DC50 of at most 50 nM and a Dmax of at least 80% were found for `COc1cc(C(=O)NC2CCN(CCOCCOCCOCCOCCNc3ccc4c(c3)C(=O)N(C3CCC(=O)NC3=O)C4=O)CC2)c(F)cc1Nc1ncc2c(n1)N(C1CCCC1)CC(F)(F)C(=O)N2C` (centres unmarked) [Compound 51, 4-((9-cyclopentyl-7,7-difluoro-5-methyl-6-oxo-6,7,8,9-tetrahydro-5H-pyrimido[4,5-b][1,4]diazepin-2-yl)amino)-N-(1-(14-((2-(2,6-dioxopiperidin-3-yl)-1,3-dioxoisoindolin-5-yl)amino)-3,6,9,12-tetraoxatetradecyl)piperidin-4-yl)-2-fluoro-5-methoxybenzamide] in this work.
A DC50 of at most 50 nM and a Dmax of at least 80% were found for `COc1cc(C(=O)NC2CCN(C(=O)CN3CCN(c4ccc5c(c4)C(=O)N(C4CCC(=O)NC4=O)C5=O)CC3)CC2)c(F)cc1Nc1ncc2c(n1)N(C1CCCC1)CC(F)(F)C(=O)N2C` (centres unmarked) [Compound 73, 4-((9-cyclopentyl-7,7-difluoro-5-methyl-6-oxo-6,7,8,9-tetrahydro-5H-pyrimido[4,5-b][1,4]diazepin-2-yl)amino)-N-(1-(2-(4-(2-(2,6-dioxopiperidin-3-yl)-1,3-dioxoisoindolin-5-yl)piperazin-1-yl)acetyl)piperidin-4-yl)-2-fluoro-5-methoxybenzamide] in this work.
A DC50 of at most 50 nM and a Dmax of at least 80% were found for `COc1cc(C(=O)N[C@H]2CCN(C(=O)CCN3CCN(c4ccc5c(c4)C(=O)N(C4CCC(=O)NC4=O)C5=O)CC3)C2)c(F)cc1Nc1ncc2c(n1)N(C1CCCC1)CC(F)(F)C(=O)N2C` (stereo partly drawn) [Compound 136, 4-((9-cyclopentyl-7,7-difluoro-5-methyl-6-oxo-6,7,8,9-tetrahydro-5H-pyrimido[4,5-b][1,4]diazepin-2-yl)amino)-N-((3S)-1-(3-(4-(2-(2,6-dioxopiperidin-3-yl)-1,3-dioxoisoindolin-5-yl)piperazin-1-yl)propanoyl)pyrrolidin-3-yl)-2-fluoro-5-methoxybenzamide] in this work.
A DC50 of at most 500 nM and a Dmax of 60 to 80% were found for `COc1cc(C(=O)NC2CCN(CCOCCOCC#Cc3cccc4c3C(=O)N(C3CCC(=O)NC3=O)C4=O)CC2)c(F)cc1Nc1ncc2c(n1)N(C1CCCC1)CC(F)(F)C(=O)N2C` (centres unmarked) [Compound 54, 4-((9-cyclopentyl-7,7-difluoro-5-methyl-6-oxo-6,7,8,9-tetrahydro-5H-pyrimido[4,5-b][1,4]diazepin-2-yl)amino)-N-(1-(2-(2-((3-(2-(2,6-dioxopiperidin-3-yl)-1,3-dioxoisoindolin-4-yl)prop-2-yn-1-yl)oxy)ethoxy)ethyl)piperidin-4-yl)-2-fluoro-5-methoxybenzamide] in this work.
A DC50 of at most 500 nM and a Dmax of 60 to 80% were found for `COc1cc(C(=O)NC2CCN(CCOCCOCCNc3cccc4c3C(=O)N(C3CCC(=O)NC3=O)C4=O)CC2)c(F)cc1Nc1ncc2c(n1)N(C(C)C)CC(F)(F)C(=O)N2C` (centres unmarked) [Example 100, 4-((7,7-difluoro-9-isopropyl-5-methyl-6-oxo-6,7,8,9-tetrahydro-5H-pyrimido[4,5-b][1,4]diazepin-2-yl)amino)-N-(1-(2-(2-(2-((2-(2,6-dioxopiperidin-3-yl)-1,3-dioxoisoindolin-4-yl)amino)ethoxy)ethoxy)ethyl)piperidin-4-yl)-2-fluoro-5-methoxybenzamide] in this work.
A DC50 of at most 50 nM and a Dmax of at least 80% were found for `COc1cc(C(=O)NC2CCN(CC3CCN(c4cccc5c4C(=O)N(C4CCC(=O)NC4=O)C5=O)CC3)CC2)c(F)cc1Nc1ncc2c(n1)N(C1CCCC1)CC(F)(F)C(=O)N2C` (centres unmarked) [Compound 65, 4-((9-cyclopentyl-7,7-difluoro-5-methyl-6-oxo-6,7,8,9-tetrahydro-5H-pyrimido[4,5-b][1,4]diazepin-2-yl)amino)-N-(1-((1-(2-(2,6-dioxopiperidin-3-yl)-1,3-dioxoisoindolin-4-yl)piperidin-4-yl)methyl)piperidin-4-yl)-2-fluoro-5-methoxybenzamide] in this work.
A DC50 of at most 50 nM and a Dmax of at least 80% were found for `COc1cc(C(=O)NC2CCN(CCCCCCCc3cccc(CNC(=O)COc4cccc5c4C(=O)N(C4CCC(=O)NC4=O)C5=O)c3)CC2)c(F)cc1Nc1ncc2c(n1)N(C1CCCC1)CC(F)(F)C(=O)N2C` (centres unmarked) [Compound 63, 4-((9-cyclopentyl-7,7-difluoro-5-methyl-6-oxo-6,7,8,9-tetrahydro-5H-pyrimido[4,5-b][1,4]diazepin-2-yl)amino)-N-(1-(7-(3-((2-((2-(2,6-dioxopiperidin-3-yl)-1,3-dioxoisoindolin-4-yl)oxy)acetamido)methyl)phenyl)heptyl)piperidin-4-yl)-2-fluoro-5-methoxybenzamide] in this work.
A Dmax of under 60% was found for `COc1cc(C(=O)NC2CCN(CCOCCOc3cc(-c4scnc4C)ccc3CNC(=O)[C@@H]3C[C@@H](O)CN3C(=O)[C@@H](NC(=O)C3(F)CC3)C(C)(C)C)CC2)c(F)cc1Nc1ncc2c(n1)N(C1CCCC1)CC(F)(F)C(=O)N2C` [Example 85, (2S,4R)—N-(2-(2-(2-(4-(4-((9-cyclopentyl-7,7-difluoro-5-methyl-6-oxo-6,7,8,9-tetrahydro-5H-pyrimido[4,5-b][1,4]diazepin-2-yl)amino)-2-fluoro-5-methoxybenzamido)piperidin-1-yl)ethoxy)ethoxy)-4-(4-methylthiazol-5-yl)benzyl)-1-((S)-2-(1-fluorocyclopropane-1-carboxamido)-3,3-dimethylbutanoyl)-4-hydroxypyrrolidine-2-carboxamide] in this work.
A DC50 of at most 500 nM and a Dmax of 60 to 80% were found for `COc1cc(C(=O)NC2CCN(C(=O)CN3CCN(c4cccc5c4C(=O)N(C4CCC(=O)NC4=O)C5=O)CC3)CC2)c(F)cc1Nc1ncc2c(n1)N(C1CCCC1)CC(F)(F)C(=O)N2C` (centres unmarked) [Compound 70, 4-((9-cyclopentyl-7,7-difluoro-5-methyl-6-oxo-6,7,8,9-tetrahydro-5H-pyrimido[4,5-b][1,4]diazepin-2-yl)amino)-N-(1-(2-(4-(2-(2,6-dioxopiperidin-3-yl)-1,3-dioxoisoindolin-4-yl)piperazin-1-yl)acetyl)piperidin-4-yl)-2-fluoro-5-methoxybenzamide] in this work.
With `COc1cc(C(=O)NC2CCN(CCOCCOCCNc3cccc4c3C(=O)N(C3CCC(=O)NC3=O)C4=O)CC2)c(F)cc1Nc1ncc2c(n1)N(C1CCCC1)CC(F)(F)C(=O)N2C` (centres unmarked) [Compound 2, 4-((9-cyclopentyl-7,7-difluoro-5-methyl-6-oxo-6,7,8,9-tetrahydro-5H-pyrimido[4,5-b][1,4]diazepin-2-yl)amino)-N-(1-(2-(2-(2-((2-(2,6-dioxopiperidin-3-yl)-1,3-dioxoisoindolin-4-yl)amino)ethoxy)ethoxy)ethyl)piperidin-4-yl)-2-fluoro-5-methoxybenzamide] the DC50 was at most 50 nM, the “PLK1 protein degradability (western blot, FIG. 1 and 2)” value (in comparison with Comparative Compounds) was “excellent PLK1 protein degradability” and the Dmax was at least 80%.
A Dmax of under 60% was found for `COc1cc(C(=O)NC2CCN(Cc3cn(CCNC(=O)CNc4cccc5c4C(=O)N(C4CCC(=O)NC4=O)C5=O)nn3)CC2)c(F)cc1Nc1ncc2c(n1)N(C1CCCC1)CC(F)(F)C(=O)N2C` (centres unmarked) [Compound 47, 4-((9-cyclopentyl-7,7-difluoro-5-methyl-6-oxo-6,7,8,9-tetrahydro-5H-pyrimido[4,5-b][1,4]diazepin-2-yl)amino)-N-(1-((1-(2-(2-((2-(2,6-dioxopiperidin-3-yl)-1,3-dioxoisoindolin-4-yl)amino)acetamido)ethyl)-1H-1,2,3-triazol-4-yl)methyl)piperidin-4-yl)-2-fluoro-5-methoxybenzamide] in this work.
A DC50 of at most 50 nM and a Dmax of at least 80% were found for `COc1cc(C(=O)NC2CCN(CCCCCCCc3cncc(CNC(=O)COc4cccc5c4C(=O)N(C4CCC(=O)NC4=O)C5=O)c3)CC2)c(F)cc1Nc1ncc2c(n1)N(C1CCCC1)CC(F)(F)C(=O)N2C` (centres unmarked) [Compound 64, 4-((9-cyclopentyl-7,7-difluoro-5-methyl-6-oxo-6,7,8,9-tetrahydro-5H-pyrimido[4,5-b][1,4]diazepin-2-yl)amino)-N-(1-(7-(5-((2-((2-(2,6-dioxopiperidin-3-yl)-1,3-dioxoisoindolin-4-yl)oxy)acetamido)methyl)pyridin-3-yl)heptyl)piperidin-4-yl)-2-fluoro-5-methoxybenzamide] in this work.
